Results on 2 compounds are retold here after paper PMC7312375, “A Novel, Pan-PDE Inhibitor Exerts Anti-Fibrotic Effects in Human Lung Fibroblasts via Inhibition of TGF-β Signaling and Activation of cAMP/PKA Signaling” (International Journal of Molecular Sciences, 2020).

The test system of experiment [1] is TGF-β1-induced MRC-5 cells. Kind of experiment: qPCR of myofibroblast marker genes in TGF-β1-induced MRC-5. Type of experiment: cell-based, human. As to conditions: 10 µM, 24 h TGF-β1 5 ng/mL; compared to TGF-β1 alone. The procedure:
Quantitative polymerase chain reaction (qPCR) was performed to assess the expression level of selected human genes: ACTA2, MYH11, SM22, COL1A1, TNC, FN1, and VCAN. MRC-5 cells were preincubated with study compounds (10 µM) for 1 h, followed by 24 h incubation with TGF-β1, and then total RNA was extracted using Total RNA Mini Kit (A&A Biotechnology, Gdynia, Poland) according to the manufacturer’s protocol. RNA concentration was measured with a BioSpectrometer® basic (Eppendorf), and equal amounts of total RNA (about 1 µg) were reverse-transcribed using the iScript™ cDNA Synthesis Kit (BioRad, Hercules, CA, USA). qPCR assays were performed using the CFX96 Touch Real-Time PCR Detection System (BioRad, Hercules, CA, USA) and SsoAdvanced^TM Universal SYBR® Green Supermix (BioRad, Hercules, CA, USA). qPCR cycling was performed with denaturation at 94 °C for 30 s, annealing at 59 °C for 30 s and an extension at 72 °C for 30 s. The relative abundance of specific mRNA transcripts was estimated based on cycle threshold (Ct) value and recalculated against the endogenous reference 18S ribosomal RNA gene (18S rRNA) using the ∆Ct method. The experiments were run three times in duplicates.

Experiment [2] deals with TGF-β1-induced MRC-5 cells. Kind of experiment: Western blot of p-CREB. Type of experiment: cell-based, human. As to conditions: 10 µM. The procedure:
Western Blot analysis was performed according to a standard protocol. Briefly, MRC-5 cells were pre-incubated with the study compounds (10 µM) for 1 h, followed by 48 h incubation with TGF-β1 and then lysed in RIPA buffer (RIPA Lysis and Extraction Buffer, Thermo Fisher Scientific, Waltham, MA, USA) and supplemented with protease inhibitor cocktail and phosphatase inhibitor cocktail (both from Sigma Aldrich, St. Louis, MO, USA). Equal amounts of protein (30 µg) were separated using 10% SDS-polyacrylamide gels and transferred onto polyvinylidene difluoride (PVDF) membranes (Thermo Fisher Scientific, Waltham, MA, USA). […] ROD was measured according to the NIH guidelines with Fiji ImageJ Software. […]

For experiment [3], the target named is T1, PDE4B (Homo sapiens, UniProt Q07343).
T1 construct: purchased SignalChem
T1 sequence (Q07343 whole entry): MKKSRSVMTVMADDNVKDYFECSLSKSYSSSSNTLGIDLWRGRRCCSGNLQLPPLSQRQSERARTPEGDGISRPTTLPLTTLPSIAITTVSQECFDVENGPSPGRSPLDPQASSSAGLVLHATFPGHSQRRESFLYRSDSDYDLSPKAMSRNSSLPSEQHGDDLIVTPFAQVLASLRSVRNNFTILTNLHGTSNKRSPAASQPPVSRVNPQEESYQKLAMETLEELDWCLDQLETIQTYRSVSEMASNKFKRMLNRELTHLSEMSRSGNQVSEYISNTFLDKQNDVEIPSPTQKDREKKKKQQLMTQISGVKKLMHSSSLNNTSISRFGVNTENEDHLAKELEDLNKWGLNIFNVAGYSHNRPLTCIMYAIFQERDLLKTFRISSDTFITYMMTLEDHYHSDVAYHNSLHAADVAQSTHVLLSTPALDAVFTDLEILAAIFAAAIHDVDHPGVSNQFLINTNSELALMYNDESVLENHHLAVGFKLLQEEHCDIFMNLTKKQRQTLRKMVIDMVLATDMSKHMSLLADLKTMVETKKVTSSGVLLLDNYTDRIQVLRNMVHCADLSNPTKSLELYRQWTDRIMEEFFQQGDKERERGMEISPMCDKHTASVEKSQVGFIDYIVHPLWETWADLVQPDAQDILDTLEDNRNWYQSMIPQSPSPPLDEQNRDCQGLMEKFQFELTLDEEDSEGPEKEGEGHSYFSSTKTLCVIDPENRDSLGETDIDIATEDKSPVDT
Particulars: published previously; read-out: PDE-IC50 4B; cited from earlier work.

The target of experiment [4] is T2, PDE3A (Homo sapiens, UniProt Q14432).
T2 construct: purchased SignalChem
T2 sequence (Q14432 whole entry): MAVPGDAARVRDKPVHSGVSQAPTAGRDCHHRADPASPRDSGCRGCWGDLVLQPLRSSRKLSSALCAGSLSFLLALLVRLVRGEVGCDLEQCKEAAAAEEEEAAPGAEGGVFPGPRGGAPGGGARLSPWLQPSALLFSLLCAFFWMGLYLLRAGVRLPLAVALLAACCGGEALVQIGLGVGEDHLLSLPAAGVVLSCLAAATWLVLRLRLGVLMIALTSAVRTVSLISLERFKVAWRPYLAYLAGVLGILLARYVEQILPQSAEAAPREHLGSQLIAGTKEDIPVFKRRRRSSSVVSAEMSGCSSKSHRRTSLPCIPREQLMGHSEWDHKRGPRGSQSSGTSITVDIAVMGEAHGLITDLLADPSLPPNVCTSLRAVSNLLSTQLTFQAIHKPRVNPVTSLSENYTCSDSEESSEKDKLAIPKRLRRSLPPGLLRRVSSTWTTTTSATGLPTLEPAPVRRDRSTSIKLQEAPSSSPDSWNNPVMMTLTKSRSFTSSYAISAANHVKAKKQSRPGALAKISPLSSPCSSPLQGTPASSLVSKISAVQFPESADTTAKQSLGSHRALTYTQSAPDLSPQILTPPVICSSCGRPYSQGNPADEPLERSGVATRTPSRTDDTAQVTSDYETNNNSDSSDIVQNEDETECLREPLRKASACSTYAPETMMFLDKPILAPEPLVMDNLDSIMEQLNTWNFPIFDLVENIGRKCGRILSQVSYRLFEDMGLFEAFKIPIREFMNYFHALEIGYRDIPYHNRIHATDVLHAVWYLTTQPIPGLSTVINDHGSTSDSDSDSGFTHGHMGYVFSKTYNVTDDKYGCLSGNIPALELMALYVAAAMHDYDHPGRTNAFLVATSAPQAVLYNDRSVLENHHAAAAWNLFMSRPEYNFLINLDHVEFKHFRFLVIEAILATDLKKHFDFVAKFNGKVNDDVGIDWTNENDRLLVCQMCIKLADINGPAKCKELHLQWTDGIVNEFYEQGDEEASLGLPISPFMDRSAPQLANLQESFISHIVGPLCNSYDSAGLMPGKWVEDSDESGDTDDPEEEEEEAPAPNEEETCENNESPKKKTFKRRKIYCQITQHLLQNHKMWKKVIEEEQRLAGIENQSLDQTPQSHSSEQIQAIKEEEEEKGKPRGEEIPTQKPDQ
Kind of experiment: PDE-Glo assay, human recombinant PDE3A. Particulars: n.a. = not active; read-out: PDE-IC50 3A. It is filed as biochemical. The procedure:
Inhibitory activities of the investigated compounds against various subtypes of human recombinant (hr)PDEs, namely PDE1A, PDE1B, PDE1C, PDE3A, PDE3B, PDE4A, PDE4B, PDE4D, PDE7A, and PDE8A were assessed using a PDE-Glo^TM Assay Kit (Promega, Madison, WI, USA) according to the protocol provided by the manufacturer. Briefly, appropriate amounts of each enzyme (SignalChem, Richmond, B.C., Canada), diluted with PDE-Glo reaction buffer, were distributed on a 384-well plate (Thermo Scientific, Waltham, MA, USA). The investigated compounds were dissolved in DMSO, diluted with the same vehicle, and mixed with the reaction buffer at a v/v ratio of 1:5. Thereafter, 1 µL of these mixtures and 2.5 µL of the cAMP solution as a substrate were added. The final cAMP concentration was 0.05 µM. The samples were incubated for 10 min at 30 °C. […] Finally, 10 µL of PDE-Glo kinase reagent was added, and luminescence was measured using the POLARstar Omega plate reader (BMG LABTECH, Ortenberg, Germany). […] The relative activities (A, %) of all samples were calculated from the following equation: A = [(LUsample − LUblank)/(LUcontrol − LUblank)]·100%; where LUcontrol is the luminescence of a control sample in the absence of a PDE inhibitor, LUsample is a luminescence of an investigated sample in the presence of an inhibitor, and LUblank is a luminescence of a sample in the absence of enzyme (activity = 0). […]

As to `CCCCOc1nc2c(c(=O)n(C)c(=O)n2C)n1CCCC(=O)Nc1cc(C(C)(C)C)ccc1O` [Compound 145, 4-(8-butoxy-1,3-dimethyl-2,6-dioxo-1,2,3,6-tetrahydro-7H-purin-7-yl)-N-(5-(tert-butyl)-2-hydroxyphenyl)butanamide], in experiment [1], the “decrease in TGF-β1-induced expression of ACTA2” value is recorded as “two-fold”, the “decrease in TGF-β1-induced expression of COL1A1” value is given as “four-fold”, the “decrease in TGF-β1-induced expression of MYH11” value was “five-fold” and the “decrease in TGF-β1-induced expression of SM22” value is given as “nine-fold”. The “decrease in TGF-β1-induced expression of TNC” value in experiment [1] is on record as “five-fold”. Further, the “CREB phosphorylation (immunoblot)” value in experiment [2] is “increased CREB phosphorylation”.
As to `Cn1c(=O)c2c(nc(NCc3ccco3)n2CCCC(=O)NN=Cc2ccc(O)cc2O)n(C)c1=O` [Compound 832, N′-(2,4-dihydroxybenzylidene)-4-(8-((furan-2-ylmethyl)amino)-1,3-dimethyl-2,6-dioxo-1,2,3,6-tetrahydro-7H-purin-7-yl)butanehydrazide], the figures for the IC50 in experiment [3] and in experiment [4] were 4.4 µM and 0.125 µM, respectively.
